Molecules are shown by their SMILES. Square brackets hold non-standard residues; d marks the D form. Peptide text beside a SMILES is read from it. AEEA = NCCOCCOCC(=O)O

The text below walks through data of PMC11215077, “Antiviral activity of temporin-1CEb analogues against gingival infection with herpes simplex virus type 1” (Frontiers in Oral Health, 2024).

The subject of this assay is HSV-1. In words: Virus inhibition (replication) assay in Vero E6 and TIGKs cells, qPCR, titration, gB Western blot. The settings on record: 48 h p.i. The format is cell-based, herpes simplex virus type 1. On the procedure:
HSV-1 stocks were generated by infecting Vero E6 cells. Cells were lysed at 48 h p.i. by two freeze-thaw cycles. The virus containing fluid was aliquoted and stored at −80°C. A control Vero E6 cell lysate from mock-infected cells was prepared in the same manner as the virus stock. Virus yield was assessed by virus titration on fully confluent Vero E6 cells in 96-well plates, according to the method of Reed & Muench ([32]). Plates were incubated at 37°C for 48 h and the occurrence of a cytopathic effect was scored using an inverted microscope, and TCID50 (50% tissue culture infection dose) was calculated.
Vero E6 or TIGKs cells were seeded in 12-well plates and cultured for 48 h. […] After 30 min of incubation at 37°C, cells were infected with HSV-1 at TCID50 400 /ml or treated with mock. After 2 h of infection at 37°C, unbound viral particles were removed by washing with PBS, and culture media supplemented with peptide conjugates were applied. Following 48 h of incubation, media were collected, and the quantity of HSV-1 DNA copies was assessed using titration and qPCR.
Viral DNA was isolated from the conditioned media or the apical washes of inserts (OTG model) using Viral DNA/RNA Isolation Kit (A&A Biotechnology). The virus yield assessed by quantitative real-time PCR (qPCR). The reaction was carried out in a CFX96 Touch Real-Time PCR Detection System (Bio-Rad), in a 10 μl reaction mixture consisting of TaqMan^TM Fast Advanced Master Mix, TaqMan^TM Microbe Detection assay against HSV-1 (Vi04230116_s1) and 1 μl of viral DNA. The temperature profile was 10 s at 95°C, followed by 40 cycles of 3 s at 95°C and 20 s at 60°C. DNA quantification standards were prepared. In summary, a fragment of viral DNA was amplified using the primers listed above and cloned into the pTZ57R/T plasmid using the InsTAclone PCR cloning kit. The plasmid was propagated in E. coli, purified with the GeneJet Plasmid Miniprep Kit, and digested with the EcoR1 restriction enzyme. The number of copies per mL was estimated after the concentration of linearized DNA was assessed spectrophotometrically.
Protein extracts were prepared using lysis buffer (0.25% Na-deoxycholate, 0.5% Nonidet P-40, 0.05% SDS, protease inhibitor mixture, 2.5 mM EDTA in PBS), and the protein concentration was assessed using Pierce BCA (Thermo Fisher) protein assay kit. Equal amounts of cell extracts were separated on 10% SDS-PAGE gel and electrotransferred onto polyvinylidene difluoride membranes for gB and β-actin in transfer buffer (25 mM Tris, 0.2 M glycine, and 20% ethanol) for 90 min at 100 V. Nonspecific binding sites were blocked for 90 min in 5% skimmed milk prepared in TBST buffer (20 mM Tris, pH 7.5, 0.5 M NaCl, 0.05% Tween 20). Membranes were further incubated overnight at 4°C with primary antibodies: mouse anti-HSV-1 + HSV-2 gB (1:5000; abcam) and mouse anti-β-actin (1:4,000; BD Biosciences). The following day, membranes were washed three times with TBST buffer and incubated with HRP-conjugated secondary antibodies for 60 min at 37°C: goat anti-mouse IgG (1:20,000; β-actin; BD Bioscience) or sheep anti-mouse IgG (1:50,000; gB; Sigma Aldrich). Next, blots were washed five times for 5 min in TBST buffer, developed using Luminata Cresecendo Substarte (Merck) and exposed to AGFA medical x-ray film. Densitometry analysis was performed using ImageJ 1.52q software.

With `CC[C@H](C)[C@H](NC(=O)COCCOCCNC(=O)[C@@H](NC(=O)[C@H](CC(C)C)NC(=O)[C@H](Cc1ccc(O)cc1)NC(=O)[C@@H](NC(=O)[C@H](Cc1ccccc1)NC(=O)[C@@H]1CCCN1)C(C)C)[C@@H](C)CC)C(=O)N[C@@H](CCCCN)C(=O)N[C@@H](CCCCN)C(=O)N[C@H](C(=O)N[C@@H](CC(C)C)C(=O)N[C@@H](CO)C(=O)N[C@@H](CCCCN)C(=O)N[C@H](C(=O)N[C@@H](CCCCN)C(=O)N[C@@H](CCCCN)C(=O)N[C@@H](CC(C)C)C(=O)N[C@@H](CC(C)C)C(=O)N[C@@H](CCCCN)C(N)=O)[C@@H](C)CC)[C@@H](C)CC` [CPP1-PEG-LK6] (H-PFVYLI[AEEA]IKKILSKIKKLLK-NH2), the “expression level of gB (Western blot)” value (15 μg/ml before, during and after infection, normalized to β-actin, cell line not stated) was “significantly suppressed the expression level of gB”. Further, the “reduction in viral yield in the qPCR test” value (Figure 1C, Vero E6 (DAL-PEG-LK6 and CPP1-PEG-LK6 25 μg/ml; CPP2-PEG-LK6 10 μg/ml) and TIGKs cells (15 μg/ml)) is 3 log. Moreover, for the setting “Figure 1D, both cell models (Vero E6, TIGKs), normalized to untreated control”, the “reduction of virus replication in titration assay” value is “over 99%”.
